In article PMC7277541, “Antimicrobial and Antifungal Activities of Terpene-Derived Palladium Complexes” (Antibiotics, 2020):
≈ marks a conversion by molar mass, not a printed value.

Assay: Cytotoxicity assay (resazurin)
Format: cell-based, human
Details: human, HEK293 cells (ATCC CRL-1573), HEK293, 20 h incubation, read-out: CC50 (concentration of 50% cytotoxicity)
Experimental: Screening against bacteria and yeasts for antimicrobial activity and toxicity against mammalian cells was performed in duplicate (n = 2). […] HEK293 cells were counted manually in a Neubauer hemocytometer and added to compound-containing plates (384-well plates, tissue culture treated (TC); Corning CLS3712) giving a final density of 5000 cells/well in a total volume of 50 μL, using Dulbecco's Modified Eagle Medium (DMEM; Life Technologies 11995-073) with 10% Fetal Bovine Serum (FBS; GE SH30084.03). […] Sigma R7017) and after further incubation for 3 h at 37 °C in 5% CO2. Media only was used as negative control and cells without inhibitors as positive growth control. CC50 (concentration at 50% cytotoxicity) values were calculated by curve fitting the inhibition values vs. log(concentration) using a sigmoidal dose-response function, with variable fitting values for bottom, top and slope. Tamoxifen (Sigma Aldrich, Australia T5648) was used as positive inhibitor control on each plate. Selectivity indices (SI) were calculated by dividing the CC50 value (μg/mL) by the MIC value (μg/mL) for a given bacterial or fungal strain.

Which CC50 at 20 h does the source give for `CC/C(=C(\c1ccccc1)c1ccc(OCCN(C)C)cc1)c1ccccc1` [tamoxifen, Tamoxifen, reference compound] here?
The CC50 at 20 h was 9 µg/mL (≈ 24.2 µM).
